Assay results taken from patent publication EP4653451A1, “POLYPEPTIDE COMPOUND AND USE THEREOF” (Chengdu New Radiomedicine Technology Co., Ltd., priority 2023, dated 2024).
Counter-ions that a name gives are not always drawn. Like-named read-outs stand apart in the source and are kept apart here. Numbered stars: 1 amine (or outer) side, 2 acyl side, 3 side chain; on linkers, the order of the positions; unused ones are H or OH. Bridge positions count the residues as written; N and C are the ends. Square brackets hold non-standard residues; d marks the D form. Peptide text beside a SMILES is read from it. * marks the point of attachment. TBMB(SCH2CH2NH-DOTA) = O=C(O)CN1CCN(CC(=O)O)CCN(CC(=O)NCCSCc2cc(C[*:1])cc(C[*:2])c2)CCN(CC(=O)O)CC1; X4 = CC(=O)NC[C@H](CSCc1cccc(C[*:1])c1)N[*:2]; X6 = NC[C@H](CSCc1cccc(C[*:1])c1)N[*:2]; 1Nal = N[C@@H](Cc1cccc2ccccc12)C(=O)O; d1Nal = N[C@H](Cc1cccc2ccccc12)C(=O)O; mXylylene = c1cc(C[*:1])cc(C[*:2])c1; d(β3hC) = N[C@H](CS)CC(=O)O; β3hC = N[C@@H](CS)CC(=O)O; Hexanoyl = CCCCCC(=O)*; NHPh = c1ccc(N*)cc1; NHPentyl = CCCCCN*

Experiments:
[1] = target: T1, human recombinant FAP protein (Homo sapiens, UniProt Q12884); assay: Inhibitory activity against FAP protease activity (Z-Gly-Pro-AMC fluorescence); format: biochemical; settings: for inhibitory activity against FAP protease activity: in words
T1 construct: purchased Acrobiosystems FAP-H82Q6
T1 sequence (Q12884 1-760): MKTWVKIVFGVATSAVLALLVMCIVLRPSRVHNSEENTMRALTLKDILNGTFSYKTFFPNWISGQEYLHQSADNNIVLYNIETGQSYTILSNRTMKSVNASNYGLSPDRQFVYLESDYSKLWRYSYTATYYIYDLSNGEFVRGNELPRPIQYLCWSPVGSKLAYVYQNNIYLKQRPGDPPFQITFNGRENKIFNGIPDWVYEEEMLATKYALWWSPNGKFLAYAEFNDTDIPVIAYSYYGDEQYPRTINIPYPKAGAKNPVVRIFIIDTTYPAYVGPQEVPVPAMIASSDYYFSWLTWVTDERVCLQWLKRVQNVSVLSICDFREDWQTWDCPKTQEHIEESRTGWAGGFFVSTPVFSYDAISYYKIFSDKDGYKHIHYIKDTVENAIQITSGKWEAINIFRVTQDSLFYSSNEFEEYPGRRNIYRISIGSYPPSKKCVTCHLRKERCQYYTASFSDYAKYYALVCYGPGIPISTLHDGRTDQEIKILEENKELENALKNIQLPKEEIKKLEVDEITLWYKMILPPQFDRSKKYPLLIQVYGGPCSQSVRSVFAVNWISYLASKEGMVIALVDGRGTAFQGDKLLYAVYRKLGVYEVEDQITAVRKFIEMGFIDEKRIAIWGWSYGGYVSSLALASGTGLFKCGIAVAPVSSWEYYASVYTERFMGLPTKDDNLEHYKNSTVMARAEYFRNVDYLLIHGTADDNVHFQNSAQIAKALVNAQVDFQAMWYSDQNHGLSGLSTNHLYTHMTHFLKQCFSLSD
Description: The human recombinant FAP protein (Acrobiosystems, FAP-H82Q6) was diluted to a 125 pM FAP working solution with an assay buffer (50 mM Tris-HCl, 1 M NaCl, 1 mg/mL BSA, pH 7.5), and the FAP substrate (Z-Gly-Pro-AMC (LEONBIO, 68542-93-8)) was diluted to a 150 µM substrate working solution with the assay buffer. 40 µl of FAP working solution and 20 µl of compounds at different concentrations (4-fold dilution) were taken, then 40 µl of substrate working solution was added, and the mixture was uniformly mixed on a shaker at room temperature for 1 min. The uniformly mixed mixture was reacted at room temperature in the dark for 90 min. The fluorescence value Ex = 380 nm/Em = 460 nm was read by using a microplate reader. The original data was saved, and the IC50 value of the compound was obtained by using the original data or the Inhibition% via calculation and analyzing the data with Graphpad PRISM.

[2] = target: T2, human recombinant DPP4 protein (Homo sapiens, UniProt P27487); assay: Inhibitory activity against DPP4 protease activity (H-Gly-Pro-AMC fluorescence); format: biochemical; settings: 125 pM DPP4 working solution, 90 min at room temperature
T2 construct: purchased Acrobiosystems DP4-H5211
Description: The human recombinant DPP4 protein (Acrobiosystems, DP4-H5211) was formulated into a 125 pM working solution with an assay buffer (20 mM Tris-HCl, 100 mM NaCl), and the DPP4 substrate (H-Gly-Pro-AMC.HBr (LEONBIO, 115035-46-6)) was diluted to a 250 µM DPP4 substrate working solution with the assay buffer. 40 µl of DPP4 working solution and 20 µl of compounds at different concentrations (4-fold dilution) were taken, then 40 µl of DPP4 substrate working solution was added, and the mixture was uniformly mixed on a shaker at room temperature for 1 min. The uniformly mixed mixture was reacted at room temperature in the dark for 90 min. Reading was made by microplate reader at excitation and emission wavelengths of 380 nm and 460 nm. The original data was saved, and the IC50 value of the compound was obtained by analyzing the data with Graphpad PRISM.

[3] = 125 pM FAP working solution, 90 min at room temperature, read-out: FAP IC50

T2 sequence (P27487 whole entry): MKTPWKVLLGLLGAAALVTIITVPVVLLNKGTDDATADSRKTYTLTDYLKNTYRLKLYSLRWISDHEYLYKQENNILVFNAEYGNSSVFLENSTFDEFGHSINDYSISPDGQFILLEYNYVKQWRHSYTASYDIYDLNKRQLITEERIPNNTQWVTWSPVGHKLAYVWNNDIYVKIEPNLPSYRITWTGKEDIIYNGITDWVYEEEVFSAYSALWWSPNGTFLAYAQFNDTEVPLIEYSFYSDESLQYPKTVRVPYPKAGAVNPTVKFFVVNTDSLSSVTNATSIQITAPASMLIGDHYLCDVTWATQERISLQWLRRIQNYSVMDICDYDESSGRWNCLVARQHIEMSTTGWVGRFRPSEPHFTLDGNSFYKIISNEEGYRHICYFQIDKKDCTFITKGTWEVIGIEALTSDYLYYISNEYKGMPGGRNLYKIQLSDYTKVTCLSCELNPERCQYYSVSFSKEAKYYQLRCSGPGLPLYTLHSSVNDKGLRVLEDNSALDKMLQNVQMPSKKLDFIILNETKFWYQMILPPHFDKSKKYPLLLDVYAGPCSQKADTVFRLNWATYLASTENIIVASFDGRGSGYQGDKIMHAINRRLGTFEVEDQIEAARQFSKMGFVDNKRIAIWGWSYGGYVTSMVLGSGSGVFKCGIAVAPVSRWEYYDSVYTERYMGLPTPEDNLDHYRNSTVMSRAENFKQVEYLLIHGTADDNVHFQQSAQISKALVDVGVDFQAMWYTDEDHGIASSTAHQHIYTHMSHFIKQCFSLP

Row | IC50 [2] | IC50 [1, 3] | inhibitory activity against FAP protease activity [1] | Compound | IC50 [1]
1 | > 10 µM | 0.00153 µM |  | CCCCCC(=O)N[C@H]1CSCc2nc(CSCCNC(=O)CN3CCN(CC(=O)O)CCN(CC(=O)O)CCN(CC(=O)O)CC3)nc(n2)CSC[C@@H](C(=O)O)NC(=O)[C@H](Cc2ccccc2)NC(=O)[C@H](CCC(N)=O)NC(=O)[C@H]([C@@H](C)O)NC(=O)[C@@H]2CCCN2C(=O)[C@@H]2CCCN2C1=O [Compound 7, Hex-Cys-Pro-Pro-Thr-Gln-Phe-Cys-OH (Cys bridge 2,4,6-tribromomethyl-1,3,5-triazine (DOTA-AET)) trifluoroacetate] | 
2 | > 10 µM | 0.00418 µM |  | CCCCCC(=O)N[C@H]1CSCc2cccc(c2)CSC[C@@H](CC(=O)Nc2ccccc2)NC(=O)[C@H](Cc2cccc3ccccc23)NC(=O)[C@H](CCC(N)=O)NC(=O)[C@H]([C@@H](C)O)NC(=O)[C@@H]2CCCN2C(=O)[C@@H]2CCCN2C1=O [Compound 36] (Hexanoyl-CPPTQ[1Nal][β3hC]-NHPh; linker 1-7 via mXylylene) | 
3 |  | 0.566 µM |  | CCCCCC(=O)N[C@H]1CSCc2cc(CSCCNC(=O)CN3CCN(CC(=O)O)CCN(CC(=O)O)CCN(CC(=O)O)CC3)cc(c2)CSC[C@@H](CC(=O)O)NC(=O)[C@H](Cc2cccc3ccccc23)NC(=O)[C@H](CCC(N)=O)NC(=O)[C@H]([C@@H](C)O)NC(=O)[C@H]2CCCN2C(=O)[C@@H]2CCCN2C1=O [Compound 80, Hexanoyl-(Cys(tMeBn(DOTA-AET))-Pro-D-Pro-Thr-Gln-1Nal-betahomoCys)-OH] (Hexanoyl-CP[dP]TQ[1Nal][β3hC]-OH; linker 1-7 via TBMB(SCH2CH2NH-DOTA)) | 
4 | > 10 µM | 0.00335 µM |  | CCCCCNC(=O)C[C@@H]1CSCc2cccc(c2)CSC[C@H](NC(=O)CCCCC)C(=O)N2CCC[C@H]2C(=O)N2CCC[C@H]2C(=O)N[C@@H]([C@@H](C)O)C(=O)N[C@@H](CCC(N)=O)C(=O)N[C@@H](Cc2cccc3ccccc23)C(=O)N1 [Compound 32] (Hexanoyl-CPPTQ[1Nal][β3hC]-NHPentyl; linker 1-7 via mXylylene) | 
5 |  | > 5 µM |  | CCCCCC(=O)N[C@H]1CSCc2cc(CSCCNC(=O)CN3CCN(CC(=O)O)CCN(CC(=O)O)CCN(CC(=O)O)CC3)cc(c2)CSC[C@@H](CC(=O)O)NC(=O)[C@H](Cc2cccc3ccccc23)NC(=O)[C@H](CCC(N)=O)NC(=O)[C@H]([C@@H](C)O)NC(=O)[C@@H]2CCCN2C(=O)[C@H]2CCCN2C1=O [Compound 79, Hexanoyl-(Cys(tMeBn(DOTA-AET))-D-Pro-Pro-Thr-Gln-1Nal-betahomoCys)-OH] (Hexanoyl-C[dP]PTQ[1Nal][β3hC]-OH; linker 1-7 via TBMB(SCH2CH2NH-DOTA)) | 
6 | > 10 µM |  |  | CCCCCC(=O)N[C@H]1CSCc2cccc(c2)CSC[C@@H](C(=O)O)NC(=O)[C@H](Cc2ccccc2)NC(=O)[C@H](CCC(N)=O)NC(=O)[C@H]([C@@H](C)O)NC(=O)[C@@H]2CCCN2C(=O)[C@@H]2CCCN2C1=O [Compound 3BP-4186, reference compound] | 0.0988 µM
7 |  |  |  | CCCCCC(=O)N[C@H]1CSCc2cccc(c2)CSC[C@@H](CN)NC(=O)[C@H](Cc2ccccc2)NC(=O)[C@H](CCC(N)=O)NC(=O)[C@H]([C@@H](C)O)NC(=O)[C@@H]2CCCN2C(=O)[C@@H]2CCCN2C1=O [Compound 4, Hex-Cys-Pro-Pro-Thr-Gln-Phe-Cys-CH2NH2 (Cys bridge DBMB) trifluoroacetate] (Hexanoyl-CPPTQF; linker 1-C via X6) | 0.0113 µM
8 |  | 0.209 µM |  | CCCCCC(=O)N[C@H]1CSCc2cc(CSCCNC(=O)CN3CCN(CC(=O)O)CCN(CC(=O)O)CCN(CC(=O)O)CC3)cc(c2)CSC[C@@H](CC(=O)O)NC(=O)[C@H](Cc2cccc3ccccc23)NC(=O)[C@@H](CCC(N)=O)NC(=O)[C@H]([C@@H](C)O)NC(=O)[C@@H]2CCCN2C(=O)[C@@H]2CCCN2C1=O [Compound 82, Hexanoyl-(Cys(tMeBn(DOTA-AET))-Pro-Pro-Thr-D-Gln-1Nal-betahomoCys)-OH] (Hexanoyl-CPPT[dQ][1Nal][β3hC]-OH; linker 1-7 via TBMB(SCH2CH2NH-DOTA)) | 
9 |  | 0.0706 µM | good inhibitory activity | CCCCCC(=O)N[C@H]1CSCc2cc(CSCCNC(=O)CN3CCN(CC(=O)O)CCN(CC(=O)O)CCN(CC(=O)O)CC3)cc(c2)CSC[C@@H](CC(=O)O)NC(=O)[C@H](Cc2cccc3ccccc23)NC(=O)[C@H](CCC(N)=O)NC(=O)[C@@H]([C@H](C)O)NC(=O)[C@@H]2CCCN2C(=O)[C@@H]2CCCN2C1=O [Compound 81, Hexanoyl-(Cys(tMeBn(DOTA-AET))-Pro-Pro-D-Thr-Gln-1Nal-betahomoCys)-OH] (Hexanoyl-CPP[dT]Q[1Nal][β3hC]-OH; linker 1-7 via TBMB(SCH2CH2NH-DOTA)) | 
10 |  | 0.0147 µM | good inhibitory activity | CCCCCC(=O)N[C@@H]1CSCc2cc(CSCCNC(=O)CN3CCN(CC(=O)O)CCN(CC(=O)O)CCN(CC(=O)O)CC3)cc(c2)CSC[C@@H](CC(=O)O)NC(=O)[C@H](Cc2cccc3ccccc23)NC(=O)[C@H](CCC(N)=O)NC(=O)[C@H]([C@@H](C)O)NC(=O)[C@@H]2CCCN2C(=O)[C@@H]2CCCN2C1=O [Compound 78, Hexanoyl-(D-Cys(tMeBn(DOTA-AET))-Pro-Pro-Thr-Gln-1Nal-betahomoCys)-OH] (Hexanoyl-[dC]PPTQ[1Nal][β3hC]-OH; linker 1-7 via TBMB(SCH2CH2NH-DOTA)) | 
11 |  | 1.04 µM |  | CCCCCC(=O)N[C@H]1CSCc2cc(CSCCNC(=O)CN3CCN(CC(=O)O)CCN(CC(=O)O)CCN(CC(=O)O)CC3)cc(c2)CSC[C@@H](CC(=O)O)NC(=O)[C@@H](Cc2cccc3ccccc23)NC(=O)[C@H](CCC(N)=O)NC(=O)[C@H]([C@@H](C)O)NC(=O)[C@@H]2CCCN2C(=O)[C@@H]2CCCN2C1=O [Compound 83, Hexanoyl-(Cys(tMeBn(DOTA-AET))-Pro-Pro-Thr-Gln-D-1Nal-betahomoCys)-OH] (Hexanoyl-CPPTQ[d1Nal][β3hC]-OH; linker 1-7 via TBMB(SCH2CH2NH-DOTA)) | 
12 |  | 0.0067 µM | good inhibitory activity | CCCCCC(=O)N[C@H]1CSCc2cc(CSCCNC(=O)CN3CCN(CC(=O)O)CCN(CC(=O)O)CCN(CC(=O)O)CC3)cc(c2)CSC[C@H](CC(=O)O)NC(=O)[C@H](Cc2cccc3ccccc23)NC(=O)[C@H](CCC(N)=O)NC(=O)[C@H]([C@@H](C)O)NC(=O)[C@@H]2CCCN2C(=O)[C@@H]2CCCN2C1=O [Compound 84, Hexanoyl-(Cys(tMeBn(DOTA-AET))-Pro-Pro-Thr-Gln-1Nal-D-betahomoCys)-OH] (Hexanoyl-CPPTQ[1Nal][d(β3hC)]-OH; linker 1-7 via TBMB(SCH2CH2NH-DOTA)) | 

Row | Compound | IC50 [2] | IC50 [1, 3] | inhibitory activity against FAP protease activity [1] | IC50 [1]
13 | CCCCCC(=O)N[C@H]1CSCc2cccc(c2)CSC[C@@H](CC(=O)N[C@@H](CC(=O)O)C(N)=O)NC(=O)[C@H](Cc2ccccc2)NC(=O)[C@H](CCC(N)=O)NC(=O)[C@H]([C@@H](C)O)NC(=O)[C@@H]2CCCN2C(=O)[C@@H]2CCCN2C1=O [Compound 1, Hex-Cys-Pro-Pro-Thr-Gln-Phe-beta-HomoCys-Asp-NH2 (Cys bridge DBMB) trifluoroacetate] (Hexanoyl-CPPTQF[β3hC]D-NH2; linker 1-7 via mXylylene) | > 10 µM |  |  | 0.00291 µM
14 | CCCCCC(=O)N[C@H]1CSCc2cccc(c2)CSC[C@@H](CNC(C)=O)NC(=O)[C@H](Cc2ccccc2)NC(=O)[C@H](CCC(N)=O)NC(=O)[C@H]([C@@H](C)O)NC(=O)[C@@H]2CCCN2C(=O)[C@@H]2CCCN2C1=O [Compound 5, Hex-Cys-Pro-Pro-Thr-Gln-Phe-Cys-CH2NHAc (Cys bridge DBMB) trifluoroacetate] (Hexanoyl-CPPTQF; linker 1-C via X4) | > 10 µM |  |  | 0.0018 µM
